Data set [1] addresses T1, human EGFR exon 20 H773_V774insNPH (Homo sapiens, UniProt P00533, INS773NPH).
T1 construct: host or cells: Ba/F3
The experiment in a line: EGFR Exon20 NPH insertion cellular phosphorylation inhibition (MSD pEGFR Y1068/total EGFR).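 Also: IL3-independent Ba/F3 cells with constitutively phosphorylated EGFR, compound exposure at 37 °C under 5% CO2, electrochemiluminescent MSD measurement of the p-EGFR to total EGFR ratio.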 In kind it is cell-based. The following applies: Ba/F3 EGFR NPH ins cells, 4 h compound, p-EGFR(Y1068)/total EGFR.

Data set [2] deals with T2, human EGFR exon 20 V769_D770insASV (Homo sapiens, UniProt P00533, INS769ASV).
T2 construct: expressed in transfected cells; host or cells: Ba/F3 (DSMZ ACC-300), lentiviral transduction, puromycin selection, IL3 depletion
The experiment in a line: EGFR Exon20 ASV insertion cellular phosphorylation inhibition (MSD pEGFR Y1068/total EGFR).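 Also: electrochemiluminescent readout on an MSD SECTOR Imager, IL3-independent transduced cells in medium with 1% FBS, compound concentration series at 37 °C and 5% CO2.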 It counts as cell-based. The following applies: Ba/F3 EGFR ASV ins cells, 4 h compound, p-EGFR(Y1068)/total EGFR.

The target in data set [3] is T3, EGFR L858R&T790M (Homo sapiens, UniProt P00533, L858R/T790M).
T3 construct: host or cells: NCI-H1975
The experiment in a line: EGFR L858R and T790M cellular phosphorylation inhibition in NCI-H1975 (MSD).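 Also: phosphorylated and total EGFR detected by electrochemiluminescence, cells exposed to compound in medium containing 1% FBS at 37 °C.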 To be noted: NCI-H1975 cells, 4 h compound, p-EGFR(Y1068)/total EGFR; read-out: EGFR L858R and T790M mutation IC50. It counts as cell-based.
Experimental: One day before the test, WT or mutant cells were seeded in 96 well plates at appropriate concentrations with corresponding growth media supplemented with 1% FBS, and incubated overnight. The next day, tested compounds at a series of concentrations were added into each individual well of the plates, and the plates were incubated for 4 h at 37° C. with 5% CO2.
The EGFR (Y1068) phosphorylation level (activity) of cells in each well were then measured with MSD kit named “MULTI-SPOT®96 4-Spot HB Prototype EGFR Triplex [sequence]: pEGFR(Tyr1068),pEGFR(Tyr1173), Total EGFR” according to the manufacturer’s instruction (MESO SCALE DISCOVERY, Cat# N45ZB-1). The assay is an electrochemiluminescent method for determining both phosphorylated and total EGFR of cells with an MSD SECTOR® Imager and the ratio of p-EGFR/total EGFR can be generated by the machine. The Her2 (Y1248) phosphorylation level (activity) of cells in each well were measured with MSD Kit named “Phospho-ErbB2 (Tyr1248) Assay Whole Cell Lysate Kit” according to the manufacturer’s instruction (MESO SCALE DISCOVERY, Cat# K151CLD-3). The assay is an electrochemiluminescent method (MESO SCALE DISCOVERY) for determining both phosphorylated and total Her2 of cells with an MSD SECTOR® Imager and then the ratio of p-Her2/total Her2 can be generated by the machine.

Data set [4] has as its target T4, human Her2 exon 20 insertion mutation YVMA (Homo sapiens, UniProt P04626, INS775YVMA).
T4 construct: expressed in transfected cells; host or cells: NIH-3T3, lentiviral transduction, puromycin selection
The experiment in a line: Her2 Exon 20 YVMA insertion cellular phosphorylation inhibition (MSD p-Her2 Y1248/total Her2).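 Also: lentivirally transduced NIH-3T3 cells in 1% FBS medium, electrochemiluminescent MSD read-out, graded compound concentrations at 37 °C.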 In kind it is cell-based. The following applies: Her2 YVMAins cells, 4 h compound.

Data set [5] concerns the target T5, WT EGFR (Homo sapiens, UniProt P00533).
T5 construct: host or cells: A-431
The experiment in a line: WT EGFR cellular phosphorylation inhibition in A-431 (hEGF stimulated, MSD).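 Also: electrochemiluminescence read-out of EGFR Tyr1068 phosphorylation expressed as ratio to total EGFR, cells kept in medium with 1% FBS, compounds tested as a concentration series.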 In kind it is cell-based. To be noted: A431 cells, 4 h compound, then 100 ng/ml hEGF 10 min.

Data set [6] concerns Ba/F3 EGFR NPH ins cells. The experiment in a line: Cell proliferation, Ba/F3 EGFR NPH ins (CellTiter-Glo, 72 h).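 Also: IL3-independent cells carrying constitutively phosphorylated EGFR, compound dilution series, viable cells quantified by ATP luminescence, growth relative to DMSO wells after subtracting pre-dosing (day 0) baseline.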 It counts as cell-based. The following applies: Ba/F3 EGFR, 72 h, Ba/F3 EGFR NPH ins, 72 h proliferation; read-out: EGFR Exon20 NPH insertion GI50.
Experimental: Similar to recombinant human EGFR exon 20 H769_V770insASV Ba/F3 cell line, the recombinant human EGFR exon 20 H773_V774insNPH Ba/F3 cell line also expresses constitutively phosphorylated EGFR protein and proliferates in the absence of IL3, which could be used for in vitro PD and anti-proliferation assays.
(§1) WT or mutant cells were seeded in 384 well plates at appropriate concentrations with corresponding growth media supplemented with 10% FBS, for each experiment, identical plates were prepared in duplicates, and the plates were incubated overnight. On the next day, one of each duplicated plates was dosed with tested compounds at a series of concentrations, and another one of the duplicated plate was analysied for G0 value. The dosed plates were incubate for another 72 h at 37° C. with 5% CO2 and the number of viable cells in each well of the G0 plates or the dosed plates were measured by CellTiter-Glo® Luminescent Cell Viability Assay (Promega). This assay is a luminescent method for determining the number viable cells through measurement of cellular ATP concentration by detection of luciferase activity. Detection reagents (15 µl) was dispensed into per well, and the plates were incubate for 30 min at room temperature. Then, the luminescence in each well was measured using the Envision plate reader (PerkinElmer). The percentage of proliferation was calculated based on the formula: %Proliferation= 100 × (G3 value of sample well-Go value)/(G3 value of DMSO control-Go value).
Data set [7] concerns Ba/F3 EGFR ASV ins cells. The experiment in a line: Cell proliferation, Ba/F3 EGFR ASV ins (CellTiter-Glo, 72 h).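 Also: IL3-independent Ba/F3 cells transduced with EGFR V769_D770insASV, cellular ATP luminescence after compound exposure, growth relative to DMSO control with the day-0 baseline reading subtracted.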 In kind it is cell-based. To be noted: Ba/F3 EGFR, 72 h, Ba/F3 EGFR ASV ins, 72 h proliferation; read-out: EGFR Exon20 ASV insertion GI50.
Data set [8] has as its system NCI-H1975 EGFR L858R/T790M cells. The experiment in a line: Cell proliferation, NCI-H1975 EGFR L858R/T790M (CellTiter-Glo, 72 h).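 Also: viable cells quantified by luciferase-based ATP luminescence, proliferation expressed relative to DMSO-treated wells (100%) after subtracting a parallel plate read at the time of dosing.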 It counts as cell-based. To be noted: Homo sapiens, NCI-H1975, 72 h, NCI-H1975, 72 h proliferation; read-out: EGFR L858R and T790M mutation GI50.
For data set [9], the system named is Her2 exon 20 insertion YVMA transduced NIH-3T3 cell line. The experiment in a line: Cell proliferation, Her2 YVMAins NIH-3T3 (CellTiter-Glo, 72 h).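 Also: viable cells quantified by ATP luminescence, growth over a day-zero baseline plate expressed as percent of DMSO control growth, compound dilution series in 10% FBS medium.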 The following applies: Mus musculus, NIH3T3, 72 h, Her2 YVMAins cells, 72 h proliferation; read-out: Her2 Exon 20 YVMA insertion GI50. In kind it is cell-based.
In data set [10] the test system is WT EGFR cell line A-431. The experiment in a line: Cell proliferation, WT EGFR A431 (CellTiter-Glo, 72 h).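 Also: proliferation from a luminescent ATP viability signal, expressed as 100 × (treated minus time-zero plate) over (DMSO control minus time-zero plate), cells grown with 10% FBS.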 In kind it is cell-based. The following applies: Homo sapiens, A-431, 72 h, A431, 72 h proliferation; read-out: EGFR WT A431 GI50.
Experimental: as §1
The subject of data set [11] is OCI-LY-10 cells. The experiment in a line: BTK (wt) cell proliferation, OCI-LY-10 (CellTiter-Glo, 72 h).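 Also: viable cells quantified via cellular ATP luminescence, proliferation given as percent of DMSO control after subtracting a duplicate plate read at time of dosing.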 In kind it is cell-based. The following applies: OCI-LY-10 cells, 72 h, CellTiter-Glo, read-out: BTK WT OCI-LY-10 GI50.
Data set [12] has as its system TMD-8 cells. The experiment in a line: BTK (wt) cell proliferation, TMD-8 (CellTiter-Glo, 72 h).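 Also: viable cells quantified by ATP-based luminescence, proliferation expressed as percent of DMSO control after subtracting a time-zero baseline plate read at dosing.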 It counts as cell-based. To be noted: TMD-8 cells, 72 h, CellTiter-Glo, read-out: BTK WT TMD-8 GI50.
Experimental: OCI-LY-10 at 3,750 cells/well, TMD-8 and Ri-1 at 2,000 cells/well, and DB at 1,250 cells/well, respectively, were sorted into 384-well plates in RPMI1640 medium with 10% FBS. After overnight incubation, all cells were incubated with compound at a series of concentrations. Meanwhile, a duplicated plate of each cell line was prepared for measuring G0 value. The dosed plates were further incubated for 72 hours and the number of viable cells was measured by CellTiter-Glo® Luminescent Cell Viability Assay (Promega), a luminescent method for determining the number of viable cells through measurement of cellular ATP concentration using Envision plate reader (PerkinElmer). The percentage of proliferation was calculated as: % Proliferation = 100 × (G3 value of sample well - G0 value)/(G3 value of DMSO control - G0 value).
Data set [13] relates to Ri-1 cells. The experiment in a line: BTK (wt) cell proliferation, Ri-1 (CellTiter-Glo, 72 h).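 Also: viable cells quantified as cellular ATP luminescence, proliferation normalized to a time-zero plate and the DMSO control, compounds tested across a dilution series.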 The following applies: Ri-1 cells, 72 h, CellTiter-Glo, read-out: BTK WT Ri-1 GI50. It counts as cell-based.
The test system of data set [14] is DB cells. The experiment in a line: BTK (wt) cell proliferation, DB (CellTiter-Glo, 72 h).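 Also: DB cells in 384-well plates given a dilution series of compound, viable cells read by ATP luminescence, growth expressed versus DMSO control after subtracting a time-zero plate reading.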 It counts as cell-based. To be noted: Homo sapiens, DB, DB cells, CellTiter-Glo, read-out: Non-BCR activated DB GI50.
Data set [15] can be described thus: In vitro rat hepatocytes clearance assay. To be noted: male, rat, cryopreserved rat hepatocytes (suspension), rat hepatocytes Clint (µL/min/10^6cells), 1 µM-range incubation up to 100 min.
Experimental: The protocol for rat/human hepatocytes metabolic stability assay is employed to determine the clearance of the compounds of the present disclosure in vitro.
Rat hepatocytes in male gender and human hepatocytes in mixed gender were obtained from commercial vendors (e.g., BioreclamationIVT) and stored at -150° C. prior to use. 10 mM stock solutions of tested compounds were prepared in DMSO. Thawing medium and supplement incubation medium (serum-free) were placed in a 37° C. water bath for at least 15 minutes prior to use. Stock solutions were diluted to 100 µM by combining 198 µL acetonitrile and 2 µL of 10 mM stock solution.
Vials of cryopreserved hepatocytes were removed from storage, ensured that vials remain at cryogenic temperatures. The vials were thawed in a 37° C. water bath with gently shaking. Vials were kept in water bath until all ice crystals had dissolved and were no longer visible. Vials were sprayed with 70% ethanol before being transferred to a biosafety cabinet. And then the contents were poured into the 50 mL thawing medium conical tube. Vials were centrifuged at 100 g for 10 minutes at room temperature.
Cell viability and density were counted using a Trypan Blue exclusion, and then cells were diluted with serum-free incubation medium to a working cell density of 1 × 10^6 viable cells/ml. […] The inactivated hepatocytes were used to prepare negative samples, which were used to exclude the misleading factor that resulted from instability of chemical itself.
Aliquots of 247.5 µL hepatocytes were dispensed into each well of a 96-well non-coated plate. The plate was placed in the incubator on an orbital shaker for approximately 10 minutes. Aliquots of 2.5 µL of the 100 µM test compounds were added into respective wells of the non-coated 96-well plate to start the reaction. This assay was performed in duplicate. The plate was incubated in the incubator on an orbital shaker for the designed time points. […] Samples were centrifuges for 20 minutes at 4000 g and aliquots of 100 µL of the supernatants were used for LC-MS/MS analysis for measurement of test compounds
In vitro hepatocyte clearance was estimated based on determination of elimination half-life (T½) of compounds disappearance from their initial concentrations. Peak area ratios of each compound (test or control) to IS was calculated. Ln (%Control) versus Incubation Time (min) curve was plotted, and the slope of a linear fitting line was calculated.
Data set [16] is described as follows: In vitro human hepatocytes clearance assay. The following applies: both, human, cryopreserved human hepatocytes (suspension), human hepatocytes Clint (µL/min/10^6cells), mixed gender human hepatocytes, incubation up to 100 min.

SMILES strings stand for the structures. Like-named read-outs stand apart in the source and are kept apart here.

We go through six molecules from patent US20230293535A1, “ERBB/BTK INHIBITORS” (Dizal (Jiangsu) Pharmaceutical Co., Ltd., priority 2018, published 2023).

T4 sequence (P04626 with tags, fused parts or gaps INS775YVMA): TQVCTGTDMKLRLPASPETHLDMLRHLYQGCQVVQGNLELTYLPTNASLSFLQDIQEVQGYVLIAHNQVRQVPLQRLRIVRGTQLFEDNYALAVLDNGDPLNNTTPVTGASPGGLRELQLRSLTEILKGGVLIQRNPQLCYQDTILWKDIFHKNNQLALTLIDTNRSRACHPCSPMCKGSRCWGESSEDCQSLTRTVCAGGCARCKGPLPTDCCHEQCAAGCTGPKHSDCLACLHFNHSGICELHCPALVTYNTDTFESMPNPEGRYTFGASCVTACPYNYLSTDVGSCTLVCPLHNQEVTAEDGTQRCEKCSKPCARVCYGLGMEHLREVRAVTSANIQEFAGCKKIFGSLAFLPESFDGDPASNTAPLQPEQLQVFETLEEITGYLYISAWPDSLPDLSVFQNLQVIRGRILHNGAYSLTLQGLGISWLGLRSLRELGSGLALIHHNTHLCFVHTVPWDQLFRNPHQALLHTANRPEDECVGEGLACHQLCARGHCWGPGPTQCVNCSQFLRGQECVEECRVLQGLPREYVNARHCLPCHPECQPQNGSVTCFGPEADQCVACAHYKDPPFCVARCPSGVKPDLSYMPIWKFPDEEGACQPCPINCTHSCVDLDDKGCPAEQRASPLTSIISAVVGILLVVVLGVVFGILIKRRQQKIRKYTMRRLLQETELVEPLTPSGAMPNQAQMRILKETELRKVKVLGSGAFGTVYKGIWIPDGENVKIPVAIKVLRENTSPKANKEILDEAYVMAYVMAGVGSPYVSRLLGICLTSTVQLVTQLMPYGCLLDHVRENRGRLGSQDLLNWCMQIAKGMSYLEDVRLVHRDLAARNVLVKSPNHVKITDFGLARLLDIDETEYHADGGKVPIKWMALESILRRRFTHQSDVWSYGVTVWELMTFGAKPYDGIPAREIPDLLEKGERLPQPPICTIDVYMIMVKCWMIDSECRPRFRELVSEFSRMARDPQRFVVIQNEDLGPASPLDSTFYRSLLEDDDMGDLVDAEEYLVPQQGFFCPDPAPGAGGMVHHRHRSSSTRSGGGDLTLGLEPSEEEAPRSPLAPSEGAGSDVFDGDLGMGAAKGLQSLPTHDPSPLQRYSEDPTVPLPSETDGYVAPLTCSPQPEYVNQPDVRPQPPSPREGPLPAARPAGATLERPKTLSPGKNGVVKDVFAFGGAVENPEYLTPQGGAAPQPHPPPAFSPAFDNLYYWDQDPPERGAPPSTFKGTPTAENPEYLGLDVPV
T2 sequence (P00533 with tags, fused parts or gaps INS769ASV): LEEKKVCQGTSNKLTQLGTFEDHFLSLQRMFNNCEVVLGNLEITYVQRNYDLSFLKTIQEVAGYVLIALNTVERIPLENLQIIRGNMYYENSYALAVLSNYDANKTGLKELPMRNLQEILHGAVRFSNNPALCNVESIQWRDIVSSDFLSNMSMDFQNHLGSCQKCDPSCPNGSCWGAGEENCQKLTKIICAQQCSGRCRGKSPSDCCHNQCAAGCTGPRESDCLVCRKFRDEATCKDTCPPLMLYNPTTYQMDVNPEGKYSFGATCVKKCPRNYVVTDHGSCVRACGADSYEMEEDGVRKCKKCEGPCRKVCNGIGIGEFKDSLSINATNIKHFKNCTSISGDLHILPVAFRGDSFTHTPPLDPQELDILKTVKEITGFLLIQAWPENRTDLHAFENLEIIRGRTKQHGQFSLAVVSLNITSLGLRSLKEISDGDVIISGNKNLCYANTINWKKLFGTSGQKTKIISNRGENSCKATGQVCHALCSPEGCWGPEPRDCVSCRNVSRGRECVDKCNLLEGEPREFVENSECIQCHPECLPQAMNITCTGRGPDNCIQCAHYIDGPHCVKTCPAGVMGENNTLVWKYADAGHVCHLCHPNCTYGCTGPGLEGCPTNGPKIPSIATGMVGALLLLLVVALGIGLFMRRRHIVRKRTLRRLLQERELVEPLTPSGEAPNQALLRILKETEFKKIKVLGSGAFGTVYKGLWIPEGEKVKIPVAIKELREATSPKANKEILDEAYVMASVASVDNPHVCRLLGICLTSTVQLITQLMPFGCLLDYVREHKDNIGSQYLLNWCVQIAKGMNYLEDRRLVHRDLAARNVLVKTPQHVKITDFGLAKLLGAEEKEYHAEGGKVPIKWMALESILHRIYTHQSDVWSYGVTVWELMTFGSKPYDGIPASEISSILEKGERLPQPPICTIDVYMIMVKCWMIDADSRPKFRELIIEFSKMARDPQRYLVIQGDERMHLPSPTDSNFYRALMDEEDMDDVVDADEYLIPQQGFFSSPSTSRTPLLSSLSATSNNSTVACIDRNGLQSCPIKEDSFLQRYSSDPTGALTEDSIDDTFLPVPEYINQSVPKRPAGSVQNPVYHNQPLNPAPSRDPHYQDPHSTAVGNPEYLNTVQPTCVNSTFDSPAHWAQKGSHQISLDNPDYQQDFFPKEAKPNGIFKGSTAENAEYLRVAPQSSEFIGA
T3 sequence (P00533 25-1210 T790M/L858R): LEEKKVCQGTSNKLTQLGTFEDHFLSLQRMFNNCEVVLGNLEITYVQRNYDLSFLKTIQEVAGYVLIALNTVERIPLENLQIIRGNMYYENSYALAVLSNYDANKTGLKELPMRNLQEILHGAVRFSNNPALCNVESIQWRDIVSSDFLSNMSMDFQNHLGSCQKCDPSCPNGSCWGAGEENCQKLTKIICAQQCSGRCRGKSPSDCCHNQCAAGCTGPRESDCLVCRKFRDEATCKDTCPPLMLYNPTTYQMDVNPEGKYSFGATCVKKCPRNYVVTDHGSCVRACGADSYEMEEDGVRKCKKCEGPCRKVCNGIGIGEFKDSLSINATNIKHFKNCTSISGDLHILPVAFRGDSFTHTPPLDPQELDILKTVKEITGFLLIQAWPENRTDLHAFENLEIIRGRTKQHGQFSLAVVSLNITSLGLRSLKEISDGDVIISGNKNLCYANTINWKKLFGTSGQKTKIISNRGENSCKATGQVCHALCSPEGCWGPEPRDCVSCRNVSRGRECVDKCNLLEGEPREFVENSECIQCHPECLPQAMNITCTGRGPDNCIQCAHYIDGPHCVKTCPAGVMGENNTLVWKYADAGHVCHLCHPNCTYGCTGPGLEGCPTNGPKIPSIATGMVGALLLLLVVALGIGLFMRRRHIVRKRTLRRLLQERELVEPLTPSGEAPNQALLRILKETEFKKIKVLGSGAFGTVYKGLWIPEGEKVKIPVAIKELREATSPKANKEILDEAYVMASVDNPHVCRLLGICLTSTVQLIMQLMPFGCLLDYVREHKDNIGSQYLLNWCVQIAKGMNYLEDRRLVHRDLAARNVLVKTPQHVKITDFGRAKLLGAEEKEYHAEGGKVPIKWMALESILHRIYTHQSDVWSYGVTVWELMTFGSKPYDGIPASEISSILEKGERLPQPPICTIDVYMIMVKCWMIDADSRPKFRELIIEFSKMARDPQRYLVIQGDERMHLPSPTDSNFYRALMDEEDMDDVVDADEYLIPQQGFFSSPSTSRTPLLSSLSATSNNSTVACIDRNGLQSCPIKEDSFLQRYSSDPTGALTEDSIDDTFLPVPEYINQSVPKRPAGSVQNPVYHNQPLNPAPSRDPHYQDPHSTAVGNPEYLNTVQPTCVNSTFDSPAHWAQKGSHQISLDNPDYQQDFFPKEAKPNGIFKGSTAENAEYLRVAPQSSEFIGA
T1 sequence (P00533 with tags, fused parts or gaps INS773NPH): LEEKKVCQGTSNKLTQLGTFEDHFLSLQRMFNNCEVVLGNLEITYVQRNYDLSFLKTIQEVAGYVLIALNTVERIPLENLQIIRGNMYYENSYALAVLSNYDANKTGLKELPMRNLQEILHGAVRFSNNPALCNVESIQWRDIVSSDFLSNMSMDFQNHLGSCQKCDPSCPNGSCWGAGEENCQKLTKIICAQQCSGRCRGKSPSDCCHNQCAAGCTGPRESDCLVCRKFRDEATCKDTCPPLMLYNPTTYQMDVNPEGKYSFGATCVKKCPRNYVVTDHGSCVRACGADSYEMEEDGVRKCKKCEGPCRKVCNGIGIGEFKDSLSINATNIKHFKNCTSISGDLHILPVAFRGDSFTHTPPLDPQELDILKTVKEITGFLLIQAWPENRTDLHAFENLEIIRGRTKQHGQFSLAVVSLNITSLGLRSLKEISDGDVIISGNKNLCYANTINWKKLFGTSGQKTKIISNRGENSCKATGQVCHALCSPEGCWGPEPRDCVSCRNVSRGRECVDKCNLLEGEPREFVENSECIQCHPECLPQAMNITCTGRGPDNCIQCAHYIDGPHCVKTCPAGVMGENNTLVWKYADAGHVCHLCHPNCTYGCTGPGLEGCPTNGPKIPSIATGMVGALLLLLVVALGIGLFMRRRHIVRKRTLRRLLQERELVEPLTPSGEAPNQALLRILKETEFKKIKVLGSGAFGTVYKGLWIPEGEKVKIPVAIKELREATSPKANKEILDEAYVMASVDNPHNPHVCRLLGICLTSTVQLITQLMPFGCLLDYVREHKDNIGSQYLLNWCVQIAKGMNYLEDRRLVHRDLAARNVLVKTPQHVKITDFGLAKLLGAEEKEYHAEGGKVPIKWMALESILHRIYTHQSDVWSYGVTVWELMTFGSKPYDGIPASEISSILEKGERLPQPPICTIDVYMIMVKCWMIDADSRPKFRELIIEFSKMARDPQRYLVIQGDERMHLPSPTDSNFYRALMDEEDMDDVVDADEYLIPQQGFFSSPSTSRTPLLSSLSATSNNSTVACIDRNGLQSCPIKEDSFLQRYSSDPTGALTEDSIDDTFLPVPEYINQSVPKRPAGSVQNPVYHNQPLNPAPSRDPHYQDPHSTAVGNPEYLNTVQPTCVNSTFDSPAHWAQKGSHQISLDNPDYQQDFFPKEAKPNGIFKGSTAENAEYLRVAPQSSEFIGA

For the molecule `C=CC(=O)Nc1cc(Nc2ncnc(Nc3cc(Cl)c(F)cc3C(C)(O)CC)n2)c(OC)cc1N1CC[C@@H](N(C)C)C1` (single isomer, unassigned) [Compound 69, N-(5-(4-(5-chloro-4-fluoro-2-((R)-2-hydroxybutan-2-yl)phenylamino)-1,3,5-triazin-2-ylamino)-2-((R)-3-(dimethylamino)pyrrolidin-1-yl)-4-methoxyphenyl)acrylamide or N-(5-(4-(5-chloro-4-fluoro-2-((S)-2-hydroxybutan-2-yl)phenylamino)-1,3,5-triazin-2-ylamino)-2-((R)-3-(dimethylamino)pyrrolidin-1-yl)-4-methoxyphenyl)acrylamide], the IC50 in data set [1] is 46.3 nM; in [2] it was 20.2 nM; in data set [3], 1.2 nM; in data set [4], 33.1 nM; in data set [5], 56.2 nM. Further, the GI50 came to 58.1 nM in data set [6]; 70.1 nM in data set [7]; 5.5 nM in data set [8]; 89.1 nM in [9]; 12.2 nM in [10]; 74.5 nM in data set [11]. In addition, the GI50 in [12] (Homo sapiens, TMD8, 72 h) was 10.1 nM; in data set [13], 13.9 nM; in data set [14], greater than 3000 nM. The hepatocyte CLint at 1 µM stood at 10.7 µL/min/1e6 cells in data set [15] and 4.12 µL/min/1e6 cells in [16].

On to `C=CC(=O)Nc1cc(Nc2nccc(Nc3cc(Cl)c(F)cc3C(C)(O)CC)n2)c(OC)cc1N1CC[C@@H](N(C)C)C1` (single isomer, unassigned) [Compound 76, N-(5-(4-(5-chloro-4-fluoro-2-((R)-2-hydroxybutan-2-yl)phenylamino)pyrimidin-2-ylamino)-2-((R)-3-(dimethylamino)pyrrolidin-1-yl)-4-methoxyphenyl) acrylamide or N-(5-(4-(5-chloro-4-fluoro-2-((S)-2-hydroxybutan-2-yl)phenylamino)pyrimidin-2-ylamino)-2-((R)-3-(dimethylamino)pyrrolidin-l-yl)-4-methoxyphenyl) acrylamide], for which the IC50 is 27.9 nM in data set [1]; 103 nM in [2]; 1.8 nM in [3]; 11.6 nM in data set [4]; 596 nM in [5]. Also, the GI50 in data set [6] was found to be 85.9 nM; in data set [7], 113 nM; in data set [8], 5.4 nM; in data set [9], 97.7 nM; in data set [10] it was 38.3 nM; in data set [11], 2.93 nM. Further, the GI50 in data set [12] was 8.44 nM; in data set [13], 5.93 nM; in [14], 1070 nM. Besides, the hepatocyte CLint at 1 µM in data set [15] is 13.9 µL/min/1e6 cells; in data set [16], 4.01 µL/min/1e6 cells.

For `C=CC(=O)Nc1cc(Nc2ncnc(Nc3cc(Cl)c(F)cc3C(C)(C)O)n2)c(OC)cc1N(C)CCN(C)C` [Compound 11, N-(5-(4-(5-chloro-4-fluoro-2-(2-hydroxypropan-2-yl)phenylamino)-1,3,5-triazin-2-ylamino)-2-((2-(dimethylamino)ethyl)(methyl)amino)-4-methoxyphenyl)acrylamide], the IC50 in data set [1] was 9.7 nM; in data set [2], 6.9 nM; in data set [3], 0.3 nM; in [4], 3 nM; in data set [5], 7.6 nM. The GI50 in data set [6] was determined as 21.6 nM; in data set [7], 25.2 nM; in data set [8], 7.7 nM; in data set [9], 20.7 nM; in [10] it was 13 nM; in [11] (Homo sapiens, OCI-Ly10, 72 h), 2.8 nM. The GI50 in data set [12] (Homo sapiens, TMD8, 72 h) came out at 10.9 nM; in data set [13] (Ri-1, 72 h), 26 nM; in [14] it was 2800 nM. Further, the hepatocyte CLint at 1 µM in [15] came to 161 µL/min/1e6 cells; in [16], 7.12 µL/min/1e6 cells.

For the molecule `[2H]C([2H])([2H])N(CCN(C)c1cc(OC)c(Nc2ncnc(Nc3cc(F)c(F)cc3C(C)(C)O)n2)cc1NC(=O)C=C)C([2H])([2H])[2H]` [Compound 22, N-(2-((2-(bis(methyl-d3)amino)ethyl)(methyl)amino)-5-((4-((4,5-difluoro-2-(2-hydroxypropan-2-yl)phenyl)amino)-1,3,5-triazin-2-yl)amino)-4-methoxyphenyl) acrylamide], the IC50 worked out at 11.2 nM in data set [1]; 8.7 nM in data set [2]; 0.4 nM in [3]; 5.5 nM in data set [4]; 12.2 nM in [5]. For the same molecule, the GI50 in [6] amounted to 26.5 nM; in data set [7], 26.5 nM; in [8], 2.7 nM; in data set [9], 44.4 nM; in data set [10] it was 12 nM. Also, the hepatocyte CLint at 1 µM in data set [15] amounted to 78.4 µL/min/1e6 cells; in [16] it was 9.78 µL/min/1e6 cells.

Consider `C=CC(=O)Nc1cc(Nc2nccc(Nc3cc(Cl)c(F)cc3C(C)(C)O)n2)c(OC)cc1N(C)CCN(C)C` [Compound 36, (N-(5-(4-(5-chloro-4-fluoro-2-(2-hydroxypropan-2-yl)phenylamino)pyrimidin-2-ylamino)-2-((2-(dimethylamino)ethyl)(methyl)amino)-4-methoxyphenyl)acrylamide)], for which, in data set [4], the IC50 came to 5.3 nM. Moreover, the GI50 in data set [6] was 42.7 nM; in [7], 37.8 nM; in [8] it was 1.6 nM; in data set [9], 75.2 nM; in [10] it was 41.6 nM; in [11] (Homo sapiens, OCI-Ly10, 72 h), 6.41 nM. For the same molecule, the GI50 stood at 8.32 nM in [12] (Homo sapiens, TMD8, 72 h); 8.2 nM in data set [13] (Ri-1, 72 h); 881 nM in data set [14]. In addition, the hepatocyte CLint at 1 µM in [15] is greater than 300 µL/min/1e6 cells; in [16], 10.3 µL/min/1e6 cells.

Consider `[2H]C([2H])([2H])N(CCN(C)c1cc(OC)c(Nc2ncnc(Nc3cc(F)c(Cl)cc3C(C)(C)O)n2)cc1NC(=O)C=C)C([2H])([2H])[2H]` [Compound 37, N-(2-((2-(bis(methyl-d3)amino)ethyl)(methyl)amino)-5-((4-((4-chloro-5-fluoro-2-(2-hydroxypropan-2-yl)phenyl)amino)-1,3,5-triazin-2-yl)amino)-4-methoxyphenyl) acrylamide], for which the IC50 in data set [1] amounted to 8.5 nM; in data set [2] it was 8.1 nM; in [3], 0.5 nM; in [4] it was 3.3 nM; in data set [5], 9.5 nM. The GI50 in data set [6] is 22.9 nM; in [7], 24 nM; in data set [8], 1.5 nM; in [9] it was 22.3 nM; in data set [10] it was 10.3 nM; in data set [11] (Homo sapiens, OCI-Ly10, 72 h), 14.6 nM. Moreover, the GI50 in [12] (Homo sapiens, TMD8, 72 h) is 10 nM; in data set [13] (Ri-1, 72 h), 34.6 nM; in data set [14], 2980 nM. Moreover, the hepatocyte CLint at 1 µM came out at 67.7 µL/min/1e6 cells in data set [15] and 11.8 µL/min/1e6 cells in data set [16].
